Read-outs that look alike come from different tables or passages of the source.
Columns and labels:
[1] = test system: Third-Instar Tobacco Budworm Larvae; test: whole plant or invertebrate; type: in vivo; details: Heliothis virescens, in Gossypium hirsutum, foliar, 72 h, larval counts after 72 hours; for mortality at 30 ppm: read-out: Average % Mortality, 30 ppm; for mortality at 100 ppm: read-out: Average % Mortality, 100 ppm; for mortality at 300 ppm: read-out: Average % Mortality, 300 ppm; for mortality at 900 ppm: read-out: Average % Mortality, 900 ppm
From the text: Residual insecticidal activity obtained with foliar treatment of cotton plants Young cotton plants with at least two expanded true leaves growing in 10 cm plastic pots were dipped, usually one leaf at a time in a 65% acetone-35% water solution of test compound with agitation for three seconds. The concentration of the compound in the solutions was 30 ppm, 100 ppm, 300 ppm or 900 ppm of active ingredient. After the leaves had dried, two leaves from each of two plants were excised and placed in petri dishes (90 mm × 100 mm) on moist filter paper (9 cm Whatman No. 1). Five third-instar tobacco budworm larvae were placed on each leaf and the petri dish capped. The infested dishes were than placed in a holding room with continuous light, ambient temperature of 80° F and 50% r.h. Larval counts were made after 72 hours. The remaining plants were placed under high intensity lights in the greenhouse adjusted to provide 14 hours of light per day. Leaf samples were assayed with third instar tobacco budworm larvae after 3, 7, 10 and 14 days exposure in the greenhouse. The data obtained are summarized in Table I. |Residual Insecticidal Activity of a Test Compound on Cotton Plants Using |Third-Instar Tobacco Budworm Larvae for Bioassay | * = Average % Mortality 20 TBW/Point

[2] = test system: adult Boophilus microplus ticks; test: whole plant or invertebrate; type: in vivo; details: Rhipicephalus microplus, in Bos taurus, topical, 48 h, read-out: Percent Adult Tick Mortality
Experimental: The effectiveness of an acaricide prepared from the novel 2,2-difluoro-1,3-dioxole-5-(α-alkyl)acetic acids of the present invention for the control of adult Boophilus microplus ticks is determined in the following test wherein the test compound is dissolved in 10% acetone-90% water mixture in sufficient amounts to give solutions containing […] ppm of test compound.
Adult engorged female ticks are dipped in the test solutions for 3 seconds and placed in individual containers and held for 48 hours in a room maintained at 80° F and 50% r.h. At the end of the holding period the ticks are examined and egg deposits counted. […]
Percent Adult Tick Mortality

`CC(C)C(C(=O)OC(C#N)c1cccc(Oc2ccccc2)c1)c1ccc2c(c1)OC(F)(F)O2` (stereo not shown) [drawing 6] was tested, and the mortality at 30 ppm ([1]; 0 days residual) was 45%, the mortality at 30 ppm ([1]; 3 days residual) was 0% and the mortality at 30 ppm ([1]; 7 days residual) was 10%. The mortality at 30 ppm ([1]; 10 days residual) was 10%, the mortality at 30 ppm ([1]; 14 days residual) was 10% and the mortality at 100 ppm ([1]; 0 days residual) was 90%. For the same compound, the mortality at 100 ppm ([1]; 3 days residual) was 55%, the mortality at 100 ppm ([1]; 7 days residual) was 55% and the mortality at 100 ppm ([1]; 10 days residual) was 65%. For the same compound, the mortality at 100 ppm ([1]; 14 days residual) was 10%, the mortality at 300 ppm ([1]; 0 days residual) was 95% and the mortality at 300 ppm ([1]; 3 days residual) was 90%. The mortality at 300 ppm ([1]; 7 days residual) was 100%, the mortality at 300 ppm ([1]; 10 days residual) was 90% and the mortality at 300 ppm ([1]; 14 days residual) was 95%. For the same compound, the mortality at 900 ppm ([1]; 0 days residual) was 100%, the mortality at 900 ppm ([1]; 3 days residual) was 100% and the mortality at 900 ppm ([1]; 7 days residual) was 100%. The mortality at 900 ppm ([1]; 10 days residual) was 100% and the mortality at 900 ppm ([1]; 14 days residual) was 100%.

Work on `CC(C)C(C(=O)OC(C#N)c1cccc(Oc2ccccc2)c1)c1ccc2c(c1)OC(F)(F)O2` (stereo not shown) [drawing 7] yielded a mortality at 7.3 ppm [2] of 80.2%, a mortality at 15.6 ppm [2] of 85.8% and a mortality at 31.2 ppm [2] of 88.4%. It also gave a mortality at 62.5 ppm [2] of 99.7% and a mortality at 125 ppm [2] of 98.3%.

Source: patent publication US4110345A, “2,2-Difluoro-1,3-benzodioxole-5-(α-alkyl)-acetic acids, and their use for the preparation of insecticides and acaricides” (American Cyanamid Company, priority 1977, dated 1978)
